Activity calls are given as the source filed them.
Key:
[1] = target: Palmitoyl-protein thioesterase ABHD10, mitochondrial (Mus musculus, UniProt Q6PE15); assay: Late stage assay provider results from the probe development effort to identify inhibitors of PME-1: fluorescence-based dose response biochemical gel-based competitive Activity-Based Protein Profiling (ABPP) inhibition of ABHD10 Set 2.; format: functional
Fatty acid synthase [2] = target: T1, Fatty acid synthase (Homo sapiens, UniProt P49327); assay: FAS thioesterase domain inhibitors, dose response, biochemical, kinetic fluorescence intensity (AID 624326); format: functional;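 further: rate of fluorescence rise from hydrolysis of a fluorogenic O-methyl fluorescein ester substrate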
T1 sequence (P49327 whole entry, the tested form may be a part): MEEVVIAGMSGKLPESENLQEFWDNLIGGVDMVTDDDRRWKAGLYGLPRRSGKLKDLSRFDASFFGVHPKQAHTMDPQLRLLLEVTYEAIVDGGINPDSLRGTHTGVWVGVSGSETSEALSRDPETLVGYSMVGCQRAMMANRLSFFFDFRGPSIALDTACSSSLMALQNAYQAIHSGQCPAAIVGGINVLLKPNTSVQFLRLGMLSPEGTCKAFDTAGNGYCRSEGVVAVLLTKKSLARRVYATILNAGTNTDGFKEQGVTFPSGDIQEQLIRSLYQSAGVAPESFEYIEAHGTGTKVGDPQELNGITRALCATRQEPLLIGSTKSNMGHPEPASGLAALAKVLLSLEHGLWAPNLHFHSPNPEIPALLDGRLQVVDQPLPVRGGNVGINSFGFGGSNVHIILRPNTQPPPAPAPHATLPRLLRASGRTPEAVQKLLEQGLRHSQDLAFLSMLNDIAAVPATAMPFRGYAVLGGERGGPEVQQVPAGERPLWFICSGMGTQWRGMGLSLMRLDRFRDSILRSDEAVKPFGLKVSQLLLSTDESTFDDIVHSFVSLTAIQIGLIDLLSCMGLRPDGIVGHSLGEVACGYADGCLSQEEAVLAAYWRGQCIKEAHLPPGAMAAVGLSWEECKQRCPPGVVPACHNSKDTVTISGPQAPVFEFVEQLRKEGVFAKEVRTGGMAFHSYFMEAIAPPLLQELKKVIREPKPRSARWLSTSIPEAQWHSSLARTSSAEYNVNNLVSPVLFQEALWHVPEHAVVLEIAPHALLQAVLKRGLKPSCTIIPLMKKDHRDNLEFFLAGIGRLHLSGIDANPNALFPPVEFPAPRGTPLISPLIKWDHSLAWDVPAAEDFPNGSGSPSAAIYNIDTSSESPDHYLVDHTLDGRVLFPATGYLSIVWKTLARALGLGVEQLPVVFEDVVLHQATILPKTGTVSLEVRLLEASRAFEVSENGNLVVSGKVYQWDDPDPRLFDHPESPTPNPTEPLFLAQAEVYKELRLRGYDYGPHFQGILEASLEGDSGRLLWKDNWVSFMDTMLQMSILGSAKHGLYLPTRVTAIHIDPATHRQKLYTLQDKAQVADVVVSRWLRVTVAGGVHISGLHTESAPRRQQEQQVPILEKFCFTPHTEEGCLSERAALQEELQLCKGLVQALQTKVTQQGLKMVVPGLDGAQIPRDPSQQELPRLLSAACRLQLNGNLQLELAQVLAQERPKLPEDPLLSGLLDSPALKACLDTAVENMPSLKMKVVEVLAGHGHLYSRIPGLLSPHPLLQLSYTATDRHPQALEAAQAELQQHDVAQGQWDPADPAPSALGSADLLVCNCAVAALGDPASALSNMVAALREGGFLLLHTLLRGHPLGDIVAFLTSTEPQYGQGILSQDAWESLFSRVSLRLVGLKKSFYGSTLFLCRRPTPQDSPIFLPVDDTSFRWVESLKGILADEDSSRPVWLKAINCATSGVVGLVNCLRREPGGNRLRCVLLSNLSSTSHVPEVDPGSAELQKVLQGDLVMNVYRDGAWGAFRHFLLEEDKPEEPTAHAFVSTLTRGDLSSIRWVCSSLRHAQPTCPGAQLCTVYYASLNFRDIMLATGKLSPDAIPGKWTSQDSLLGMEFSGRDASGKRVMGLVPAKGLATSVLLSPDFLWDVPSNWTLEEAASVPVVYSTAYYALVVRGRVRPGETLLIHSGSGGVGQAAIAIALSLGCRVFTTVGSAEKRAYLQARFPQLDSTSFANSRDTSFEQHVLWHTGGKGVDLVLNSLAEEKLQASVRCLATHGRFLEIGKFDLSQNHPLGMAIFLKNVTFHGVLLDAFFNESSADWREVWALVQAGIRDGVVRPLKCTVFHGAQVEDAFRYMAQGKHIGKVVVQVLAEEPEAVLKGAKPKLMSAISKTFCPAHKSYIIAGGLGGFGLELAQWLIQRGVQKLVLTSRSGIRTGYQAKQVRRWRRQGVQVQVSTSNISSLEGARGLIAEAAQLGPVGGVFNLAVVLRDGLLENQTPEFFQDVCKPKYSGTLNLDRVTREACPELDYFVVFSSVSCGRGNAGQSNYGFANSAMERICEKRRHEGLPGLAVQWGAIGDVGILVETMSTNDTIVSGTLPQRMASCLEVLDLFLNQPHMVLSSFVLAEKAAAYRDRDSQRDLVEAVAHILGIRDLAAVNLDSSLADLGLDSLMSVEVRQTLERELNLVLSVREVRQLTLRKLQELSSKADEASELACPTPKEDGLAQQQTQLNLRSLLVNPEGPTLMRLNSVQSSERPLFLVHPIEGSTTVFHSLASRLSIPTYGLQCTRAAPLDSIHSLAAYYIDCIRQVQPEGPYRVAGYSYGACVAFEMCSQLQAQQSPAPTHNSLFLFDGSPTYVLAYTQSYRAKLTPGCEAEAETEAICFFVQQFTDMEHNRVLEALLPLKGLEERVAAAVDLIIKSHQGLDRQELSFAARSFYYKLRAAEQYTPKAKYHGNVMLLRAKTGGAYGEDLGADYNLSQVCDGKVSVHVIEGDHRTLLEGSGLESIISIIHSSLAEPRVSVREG

Fatty acid synthase [3] = target: T1, Fatty acid synthase; assay: FAS thioesterase domain inhibitors, dose response, biochemical, endpoint fluorescence intensity, uHTS hits (AID 624327); format: functional;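 further: fluorescence from hydrolysis of an O-methyl fluorescein acyl ester substrate by the enzyme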
[4] = target: Adenosylmethionine-8-amino-7-oxononanoate aminotransferase (Mycobacterium tuberculosis, UniProt P9WQ81); assay: Mycobacterium tuberculosis BioA enzyme inhibitor Measured in Biochemical System Using Plate Reader - 2163-02_Inhibitor_Dose_CherryPick_Activity.; format: functional, Mycobacterium tuberculosis UT205
[5] = target: Tyrosyl-DNA phosphodiesterase 2 (Homo sapiens, UniProt O95551); assay: human TDP2 enzyme inhibitors, dose response, biochemical, epi absorbance, IC50 (AID 743297)
Beta Lactamase = Beta Lactamase (Pseudomonas aeruginosa, UniProt Q932Y6); assay: beta-lactamase reporter inhibitor potency, dose response, artefact control for NOD2-RIPK2 interaction inhibitor project, BLA reporter cells, FRET fluorescence (AID 651552); format: functional, cell-based
[6] = target: Mitochondrial peptide methionine sulfoxide reductase (Bos taurus, UniProt P54149); assay: Absorbance-based biochemical high throughput dose response assay for activators of Methionine sulfoxide reductase A (MsrA).; format: functional
Chain of Mitochondrial peptide methionine sulfoxide reductase (P54149 whole entry, the tested form may be a part): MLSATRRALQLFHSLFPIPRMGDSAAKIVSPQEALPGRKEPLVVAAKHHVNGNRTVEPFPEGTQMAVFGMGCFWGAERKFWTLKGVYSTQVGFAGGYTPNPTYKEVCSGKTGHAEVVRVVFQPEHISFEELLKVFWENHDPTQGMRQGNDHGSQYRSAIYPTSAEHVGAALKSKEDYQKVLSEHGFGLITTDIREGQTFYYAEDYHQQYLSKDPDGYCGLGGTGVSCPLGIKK

[7] = Fluorescence-based cell-based high throughput dose response assay for inhibitors of the interaction of nucleotide-binding oligomerization domain containing 2 (NOD2) and the receptor-interacting serine-threonine kinase 2 (RIPK2).; format: functional; details: Homo sapiens
[8] = CRF-BP/CRF-R2 complex antagonists, dose response, cell-based, uHTS hits, 384-well (AID 651639); format: functional, Homo sapiens; details: read-out: IC50_Mean
[9] = target: T2, Corticotropin-releasing factor receptor 2/Corticotropin-releasing factor-binding protein (Homo sapiens, UniProt P24387+Q13324); assay: activators of CRF receptor 2 with binding protein – uHTS hits, confirmation (AID 602473); format: functional; details: read-out: EC50_Mean
T2 sequence (Q13324 whole entry): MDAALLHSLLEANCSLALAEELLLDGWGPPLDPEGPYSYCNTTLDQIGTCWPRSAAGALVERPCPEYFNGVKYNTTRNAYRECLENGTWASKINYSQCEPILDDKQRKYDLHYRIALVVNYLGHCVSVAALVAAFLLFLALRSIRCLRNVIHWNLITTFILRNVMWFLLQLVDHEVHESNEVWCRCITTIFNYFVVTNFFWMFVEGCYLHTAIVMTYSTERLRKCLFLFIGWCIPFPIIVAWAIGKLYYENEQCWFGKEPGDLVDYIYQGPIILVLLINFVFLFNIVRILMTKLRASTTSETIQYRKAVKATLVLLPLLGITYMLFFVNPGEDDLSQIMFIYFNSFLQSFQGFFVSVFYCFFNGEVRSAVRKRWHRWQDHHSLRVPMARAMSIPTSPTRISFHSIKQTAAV
T2 sequence (P24387 whole entry): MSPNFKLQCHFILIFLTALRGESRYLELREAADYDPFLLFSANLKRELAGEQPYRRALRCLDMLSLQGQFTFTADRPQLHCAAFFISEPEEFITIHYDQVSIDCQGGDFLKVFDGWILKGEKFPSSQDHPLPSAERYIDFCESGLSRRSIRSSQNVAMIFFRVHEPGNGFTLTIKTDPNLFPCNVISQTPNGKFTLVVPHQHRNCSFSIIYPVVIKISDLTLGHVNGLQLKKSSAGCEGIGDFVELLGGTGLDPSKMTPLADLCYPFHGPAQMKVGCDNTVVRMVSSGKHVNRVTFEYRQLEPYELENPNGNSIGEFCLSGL

[10] = target: T2, Corticotropin-releasing factor receptor 2/Corticotropin-releasing factor-binding protein; assay: Dose Response confirmation of uHTS hits for small molecule antagonists of the CRF-binding protein and CRF-R2 receptor complex.; format: functional; details: read-out: IC50_Mean
cells [11] = format: functional
[12] = A Cell Based Secondary Assay to Explore Cytotoxicity in THP-1 Cells of Compounds that Modulate Mycobacterium tuberculosis in Media Containing Glycerol versus Media without Glycerol (2).; format: functional
[13] = nonselective inhibitors of cellular cAMP signaling, dose response, counter-screen for MC4R biased antagonist project, cell-based, TR-FRET cAMP detection (AID 602305); format: functional;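 further: U2OS cells stimulated with forskolin near its EC80 as the cAMP inducer; potency is for inhibition of forskolin-stimulated cAMP signaling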
[14] = control 3'UTR Renilla luciferase suppression, dose response, counter-screen for Shn3 inhibitor project, cell-based, Clone20-Shn3RL, cherry-picked (AID 624133); format: functional
[15] = target: Hepatocyte nuclear factor 4-alpha (Homo sapiens, UniProt P41235); format: functional, cell-based;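 further: biochemical luminescence-based dose-response counterscreen measuring inhibition of HNF4 dimerization, run alongside a screen for blockers of ABHD5–perilipin-5 interaction; split luciferase complementation of HNF4 fusion proteins in cell lysate measuring dimerization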
Melanocortin receptor 4 [16] = target: T3, Melanocortin receptor 4 (Homo sapiens, UniProt P32245); assay: MC4R antagonist potency on cAMP, dose response, cell-based, TR-FRET, biased antagonists (AID 602298); format: functional;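 further: antagonist potency against agonist-stimulated cAMP production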
T3 sequence (P32245 whole entry): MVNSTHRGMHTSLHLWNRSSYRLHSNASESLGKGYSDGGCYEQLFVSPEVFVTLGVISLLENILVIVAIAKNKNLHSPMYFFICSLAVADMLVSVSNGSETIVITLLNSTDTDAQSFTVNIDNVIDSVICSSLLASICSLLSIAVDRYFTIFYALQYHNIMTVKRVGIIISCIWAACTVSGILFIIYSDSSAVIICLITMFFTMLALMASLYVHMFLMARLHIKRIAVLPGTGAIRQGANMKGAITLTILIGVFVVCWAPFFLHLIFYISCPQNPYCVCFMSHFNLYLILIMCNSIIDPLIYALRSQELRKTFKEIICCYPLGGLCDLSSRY

[17] = HepG2 cell cytotoxicity, dose response, cytotoxicity control for Shn3 inhibitor project, CellTiter-Glo, cherry-picked (AID 624134); format: functional, cell-based
[18] = Shn3 3'UTR reporter inhibitors, dose response, cell-based, Clone20 osteoblasts, firefly luciferase, cherry-picked (AID 624132); format: functional;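 further: firefly luciferase luminescence from reporter carrying the Shn3 3'UTR in osteoblasts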
Melanocortin receptor 4 [19] = target: T3, Melanocortin receptor 4; format: functional, cell-based
[20] = target: T4, Low molecular weight phosphotyrosine protein phosphatase (Homo sapiens, UniProt P24666); format: functional; details: read-out: IC50_Mean
T4 sequence (P24666 whole entry): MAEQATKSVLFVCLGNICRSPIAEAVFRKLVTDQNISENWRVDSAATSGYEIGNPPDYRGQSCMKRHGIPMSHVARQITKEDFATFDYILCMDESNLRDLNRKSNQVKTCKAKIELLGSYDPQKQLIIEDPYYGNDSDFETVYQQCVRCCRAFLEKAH

[21] = target: T4, Low molecular weight phosphotyrosine protein phosphatase; format: functional; details: read-out: IC50_Mean; remark: listed apart in the source
[22] = inhibitors of intracellular T. cruzi replication, confirmation, NIH3T3 host cells, beta-gal luminescence (AID 2044); format: functional, cell-based;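 further: intracellular parasites grown in NIH/3T3 mouse fibroblasts as host cells; luminescent beta-galactosidase reporter signal from transgenic T. cruzi replicating inside host cells; inhibitors lower the luminescence signal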
HEK293 [23] = assay: cells; details: Homo sapiens
A-375 = assay: A375 melanoma cell viability reduction, dose response, counter-screen for MITF modulator project, cherry-pick samples, set 2 (AID 540335); format: functional, cell-based; details: Homo sapiens
[24] = target: T5, DNA repair protein RAD52 homolog (Homo sapiens, UniProt P43351); format: functional, biochemical
T5 sequence (P43351 whole entry): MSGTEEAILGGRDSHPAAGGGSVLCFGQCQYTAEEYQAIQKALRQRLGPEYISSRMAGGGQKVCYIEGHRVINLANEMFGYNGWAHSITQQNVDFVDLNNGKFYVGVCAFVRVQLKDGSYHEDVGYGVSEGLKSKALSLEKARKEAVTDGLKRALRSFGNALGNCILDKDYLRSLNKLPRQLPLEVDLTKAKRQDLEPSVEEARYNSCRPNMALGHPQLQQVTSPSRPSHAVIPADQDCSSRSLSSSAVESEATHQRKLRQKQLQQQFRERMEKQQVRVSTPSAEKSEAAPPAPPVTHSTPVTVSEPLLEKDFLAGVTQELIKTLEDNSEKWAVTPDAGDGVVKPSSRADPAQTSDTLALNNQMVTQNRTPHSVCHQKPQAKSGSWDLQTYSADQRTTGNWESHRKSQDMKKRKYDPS

[25] = target: 26S proteasome non-ATPase regulatory subunit 14 (Homo sapiens, UniProt O00487); assay: inhibition of proteasome subunit RPN11 – biochemical, fluorescence polarization, uHTS hits, confirmation (AID 602368); format: functional
Chain of 26S proteasome non-ATPase regulatory subunit 14 (O00487 whole entry): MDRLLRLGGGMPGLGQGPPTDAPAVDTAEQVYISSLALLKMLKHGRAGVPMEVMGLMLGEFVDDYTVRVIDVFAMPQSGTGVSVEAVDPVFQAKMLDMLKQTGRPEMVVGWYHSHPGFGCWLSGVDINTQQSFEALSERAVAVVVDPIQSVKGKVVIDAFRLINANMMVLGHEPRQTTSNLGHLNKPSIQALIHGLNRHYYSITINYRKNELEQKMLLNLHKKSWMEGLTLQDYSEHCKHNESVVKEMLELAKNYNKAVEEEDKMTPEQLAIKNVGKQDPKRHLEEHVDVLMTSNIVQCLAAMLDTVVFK

INS1 = assay: beta cell apoptosis inhibitors, cytokine rescue, dose response, luminescence, retest (AID 449756); format: functional, cell-based; details: Rattus norvegicus;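 further: cell death triggered by IL-1 beta plus TNF-alpha plus IFN-gamma mixture; protective hits raise ATP signal compared with cytokine alone wells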
[26] = target: T6, Microphthalmia-associated transcription factor (Homo sapiens, UniProt O75030); assay: TRPM1 promoter luciferase signal decrease, dose response, MITF inhibitor project, cell-based, SK-MEL-5, cherry-picked, set 3 (AID 493073); format: functional
T6 sequence (O75030 whole entry): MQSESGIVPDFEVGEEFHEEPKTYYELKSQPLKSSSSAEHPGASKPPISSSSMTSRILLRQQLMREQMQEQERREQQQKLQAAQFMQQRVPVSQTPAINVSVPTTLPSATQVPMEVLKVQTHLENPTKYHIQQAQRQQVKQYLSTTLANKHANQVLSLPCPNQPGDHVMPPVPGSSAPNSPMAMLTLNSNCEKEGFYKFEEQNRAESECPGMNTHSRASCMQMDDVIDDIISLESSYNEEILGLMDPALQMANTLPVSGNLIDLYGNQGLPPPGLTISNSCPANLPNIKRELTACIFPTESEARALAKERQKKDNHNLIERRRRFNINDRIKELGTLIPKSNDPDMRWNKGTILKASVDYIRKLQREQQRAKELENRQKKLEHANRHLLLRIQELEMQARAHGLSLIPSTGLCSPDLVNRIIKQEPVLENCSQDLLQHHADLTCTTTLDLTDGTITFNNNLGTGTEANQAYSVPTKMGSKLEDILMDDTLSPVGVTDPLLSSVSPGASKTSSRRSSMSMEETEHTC

[27] = target: T7, Oxysterols receptor LXR-beta (Homo sapiens, UniProt P55055); format: functional, cell-based;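 further: Cell-based luminescence dose-response assay of agonist activity at LXR, run as a confirmatory counterscreen to a daf-12 agonist screen; HEK293 cells with Gal4-LXR fusion and GAL4-driven luciferase reporter; agonist potency from rising luciferase signal of a Gal4-LXR reporter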
T7 sequence (P55055 whole entry): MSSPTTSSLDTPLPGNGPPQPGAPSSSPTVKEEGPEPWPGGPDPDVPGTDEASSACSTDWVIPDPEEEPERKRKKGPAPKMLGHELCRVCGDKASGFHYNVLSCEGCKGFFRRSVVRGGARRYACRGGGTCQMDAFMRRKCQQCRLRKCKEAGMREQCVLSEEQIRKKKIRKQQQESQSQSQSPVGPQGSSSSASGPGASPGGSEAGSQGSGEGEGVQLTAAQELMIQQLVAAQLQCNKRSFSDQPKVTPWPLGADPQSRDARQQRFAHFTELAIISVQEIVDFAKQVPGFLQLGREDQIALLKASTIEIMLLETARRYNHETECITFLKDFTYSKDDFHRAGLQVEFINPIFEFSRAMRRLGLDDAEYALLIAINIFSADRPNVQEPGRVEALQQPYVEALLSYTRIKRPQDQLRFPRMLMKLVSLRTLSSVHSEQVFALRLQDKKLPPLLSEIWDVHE

cells [28] = assay: cells
[29] = target: 72 kDa type IV collagenase (Homo sapiens, UniProt P08253); assay: Dose Response validation of uHTS RPN11 inhibitor hits using a MMP-2 Fluorescence assay.; format: functional
Chain of 72 kDa type IV collagenase (P08253 whole entry): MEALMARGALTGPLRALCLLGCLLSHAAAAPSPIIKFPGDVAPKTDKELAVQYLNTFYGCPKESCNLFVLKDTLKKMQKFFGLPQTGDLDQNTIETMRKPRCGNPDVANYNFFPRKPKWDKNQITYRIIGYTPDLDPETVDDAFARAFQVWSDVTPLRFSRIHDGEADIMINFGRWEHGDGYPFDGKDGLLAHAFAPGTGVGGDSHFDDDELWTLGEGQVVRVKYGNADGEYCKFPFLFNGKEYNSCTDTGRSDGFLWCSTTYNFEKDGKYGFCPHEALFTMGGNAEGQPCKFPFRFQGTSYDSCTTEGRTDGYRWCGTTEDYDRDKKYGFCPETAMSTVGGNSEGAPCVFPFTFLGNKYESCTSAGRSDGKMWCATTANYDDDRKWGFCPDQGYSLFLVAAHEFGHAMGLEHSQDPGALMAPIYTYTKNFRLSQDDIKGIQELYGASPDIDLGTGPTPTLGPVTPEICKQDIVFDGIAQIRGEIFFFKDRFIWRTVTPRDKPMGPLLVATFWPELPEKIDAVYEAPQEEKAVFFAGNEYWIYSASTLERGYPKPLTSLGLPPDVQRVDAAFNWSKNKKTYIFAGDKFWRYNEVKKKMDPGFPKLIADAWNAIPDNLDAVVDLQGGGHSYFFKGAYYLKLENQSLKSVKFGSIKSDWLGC

[30] = target: DNA (cytosine-5)-methyltransferase 1 (Homo sapiens, UniProt P26358); assay: DNMT1 methyltransferase inhibitors, confirmation, biochemical, fluorescent molecular beacon (AID 602386); format: functional
Prothrombin = Prothrombin (Bos taurus, UniProt P00735); assay: thrombin inhibition, dose response, biochemical, fluorescence polarization, uHTS hits (AID 602369); format: functional
HEK293 [31] = assay: cells; details: Homo sapiens; remark: listed apart in the source
[32] = target: Potassium voltage-gated channel subfamily KQT member 2 (Rattus norvegicus, UniProt O88943); assay: KCNQ2 potassium channel inhibitors, dose response, cell-based, automated electrophysiology, set II, rat KCNQ2 (AID 588637); format: functional
Chain of Potassium voltage-gated channel subfamily KQT member 2 (O88943 whole entry): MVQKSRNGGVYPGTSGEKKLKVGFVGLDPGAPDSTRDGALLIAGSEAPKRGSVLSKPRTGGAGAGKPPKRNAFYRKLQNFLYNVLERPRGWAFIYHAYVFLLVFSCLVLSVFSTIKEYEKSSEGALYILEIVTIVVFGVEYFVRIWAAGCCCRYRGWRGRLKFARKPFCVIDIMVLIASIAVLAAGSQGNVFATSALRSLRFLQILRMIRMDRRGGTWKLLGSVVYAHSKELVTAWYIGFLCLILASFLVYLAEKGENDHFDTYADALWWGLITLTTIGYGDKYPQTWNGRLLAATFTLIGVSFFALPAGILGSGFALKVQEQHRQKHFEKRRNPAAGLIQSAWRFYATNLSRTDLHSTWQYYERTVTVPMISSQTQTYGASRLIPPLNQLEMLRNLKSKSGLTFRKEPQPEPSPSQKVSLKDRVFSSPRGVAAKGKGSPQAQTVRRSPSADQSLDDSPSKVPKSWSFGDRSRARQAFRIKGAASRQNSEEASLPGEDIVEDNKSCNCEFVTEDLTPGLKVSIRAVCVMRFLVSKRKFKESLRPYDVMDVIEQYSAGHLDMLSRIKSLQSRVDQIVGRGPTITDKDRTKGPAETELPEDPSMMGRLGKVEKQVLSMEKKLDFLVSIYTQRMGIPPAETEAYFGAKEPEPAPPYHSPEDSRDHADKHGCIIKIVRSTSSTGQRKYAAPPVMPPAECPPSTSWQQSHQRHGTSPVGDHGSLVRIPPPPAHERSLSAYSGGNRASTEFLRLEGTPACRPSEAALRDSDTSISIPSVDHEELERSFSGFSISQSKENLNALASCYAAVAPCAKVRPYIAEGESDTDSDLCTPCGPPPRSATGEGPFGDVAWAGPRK

[33] = target: G-protein coupled receptor 55 (Homo sapiens, UniProt Q9Y2T6); assay: GPR55 antagonists blocking LPI-driven arrestin recruitment, primary screen, imaging, U2OS, beta-arrestin-GFP, LPI agonist (AID 2013); format: functional;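 further: antagonist potency measured as reduced agonist-driven arrestin aggregation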

CC[C@@]1(c2cccc(C)c2)C(=O)N(C(=O)OC)N1C(=O)OC
IC50 [1]: 413 nM (active)
IC50 (Fatty acid synthase [2]): 5.96 µM (active)
IC50 (Fatty acid synthase [3]): 6.22 µM (active)

CCCC(=O)Nc1cccc(NC(=O)c2ccc(C)c([N+](=O)[O-])c2)c1
AC50 [4]: 1.96 µM (active)

CC1OC2CC(=O)OC2C2=C1C(=O)c1c(O)cccc1C2=O (configuration not stated)
IC50 [5]: 12 µM (inactive)
IC50 (Beta Lactamase): 38.2 µM (inactive)
EC50 [6]: 21 µM (inactive)
IC50 [7]: 2.14 µM (active)

CCOc1cc(-c2cn(S(=O)(=O)c3cccc4nsnc34)nc2N)cc(OCC)c1OCC
IC50 [8]: > 20 µM (inactive)
EC50 [9]: > 53 µM (inactive)
IC50 [10]: 21.1 µM (active)

CCOC(=O)COn1c2c(c3c4no[n+]([O-])c4ccc31)CCCC2
IC50 (cells [11]): 5.49 µM (active)
CC50 [12]: > 100 µM (active)

CC(O)CC(=O)OC[C@]12CC[C@H]3[C@@](C)(CC[C@H]4C(C)(C)CCC[C@]34C)[C@@H]1CC(C1=CC(=O)OC1O)O2 (some centres not stated)
IC50 [13]: > 64.6 µM (inactive)
AC50 [14]: 5.5 µM (active)
IC50 [15]: 3.53 µM (active)
IC50 (Melanocortin receptor 4 [16]): 22 µM (inactive)
AC50 [17]: 22.1 µM (active)
AC50 [18]: 3.75 µM (active)
EC50 (Melanocortin receptor 4 [19]): > 89.2 µM (inactive)

Oc1c(/C=N/c2ccc(Cl)cc2)cnn1-c1cccc(Cl)n1
IC50 [20]: 17.1 µM (active)
IC50 [21]: 15.4 µM (active)

Cc1cc(C)c2c(N)c3cccc(C)c3nc2n1
EC50 [22]: 1.27 µM (active)
EC50 (HEK293 [23]): > 59.6 µM (inactive)
AC50 (A-375): 3.39 µM (active)
AC50 [24]: 2.24 µM (active)
IC50 [25]: 13.1 µM (active)
AC50 (INS1): 1.62 µM (active)
AC50 [26]: 3.21 µM (active)
EC50 [27]: > 67.5 µM (inactive)
EC50 (cells [28]): > 67.5 µM (inactive)
IC50 [29]: > 100 µM (inactive)
IC50 [30]: > 99 µM (inactive)
IC50 (Prothrombin): > 100 µM (inactive)
EC50 (HEK293 [31]): > 2.21 µM (active)

COc1ccc(Cl)cc1C(=O)NC(=S)Nc1ccccc1N1CCOCC1
IC50 [32]: 5.98 µM (active)
IC50 [33]: 825 nM (active)

Source: ChEMBL document CHEMBL1201862, “PubChem BioAssay data set” (2004)
